From ChEMBL document CHEMBL5715954, “Silencing c-Myc translation as a therapeutic strategy through targeting PI3Kδ and CK1ε in hematological malignancies” (Blood, 2017)
Activity calls are given as the source filed them. The rule behind the calls is not given here.

Tests used:
mTORC1 (Homo sapiens) [1] = target: T1, mTORC1 (Homo sapiens) (UniProt P42345+Q8N122+Q9BVC4); assay: Inhibition of mTORC1 in human PF-382 cells assessed as reduction in c-Myc expression at 5 uM measured after 24 hrs in presence of bortezomib by Western blot analysis; format: cell-based
T1 sequence (Q8N122 whole entry, looked up, other chains not shown): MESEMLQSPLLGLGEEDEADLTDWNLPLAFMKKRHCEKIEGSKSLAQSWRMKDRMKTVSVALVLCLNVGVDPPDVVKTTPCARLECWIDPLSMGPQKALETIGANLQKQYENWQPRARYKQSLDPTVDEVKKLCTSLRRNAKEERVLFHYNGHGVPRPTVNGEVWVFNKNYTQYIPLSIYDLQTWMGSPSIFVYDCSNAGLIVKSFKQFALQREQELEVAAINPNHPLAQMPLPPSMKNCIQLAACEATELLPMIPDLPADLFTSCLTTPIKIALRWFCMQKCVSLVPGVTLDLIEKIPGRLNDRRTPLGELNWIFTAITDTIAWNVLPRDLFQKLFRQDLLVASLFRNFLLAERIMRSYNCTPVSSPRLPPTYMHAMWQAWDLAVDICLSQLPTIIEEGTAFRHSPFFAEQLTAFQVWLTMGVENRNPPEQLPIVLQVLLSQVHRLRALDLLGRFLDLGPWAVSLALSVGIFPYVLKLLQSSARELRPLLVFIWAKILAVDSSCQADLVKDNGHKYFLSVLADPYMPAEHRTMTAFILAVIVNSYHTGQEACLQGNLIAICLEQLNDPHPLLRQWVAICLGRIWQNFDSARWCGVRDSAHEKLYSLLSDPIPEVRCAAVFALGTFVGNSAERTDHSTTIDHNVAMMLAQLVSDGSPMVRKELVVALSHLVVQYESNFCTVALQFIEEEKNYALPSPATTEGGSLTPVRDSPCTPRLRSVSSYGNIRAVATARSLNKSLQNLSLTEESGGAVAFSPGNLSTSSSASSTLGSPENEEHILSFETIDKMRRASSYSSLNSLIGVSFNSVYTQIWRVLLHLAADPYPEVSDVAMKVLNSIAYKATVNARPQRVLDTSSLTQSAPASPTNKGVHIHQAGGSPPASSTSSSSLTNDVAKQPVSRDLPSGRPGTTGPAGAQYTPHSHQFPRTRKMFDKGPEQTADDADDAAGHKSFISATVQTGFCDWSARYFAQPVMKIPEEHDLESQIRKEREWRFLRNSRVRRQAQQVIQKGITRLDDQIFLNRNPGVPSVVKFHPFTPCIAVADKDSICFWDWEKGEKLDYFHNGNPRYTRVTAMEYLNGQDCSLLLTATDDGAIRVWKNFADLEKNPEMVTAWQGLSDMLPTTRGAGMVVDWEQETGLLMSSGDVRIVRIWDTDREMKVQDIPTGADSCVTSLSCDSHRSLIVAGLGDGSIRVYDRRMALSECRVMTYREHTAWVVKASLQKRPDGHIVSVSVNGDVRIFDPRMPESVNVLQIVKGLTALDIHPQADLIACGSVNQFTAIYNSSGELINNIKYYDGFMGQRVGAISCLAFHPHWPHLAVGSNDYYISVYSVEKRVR
T1 sequence (Q9BVC4 whole entry, looked up, other chains not shown): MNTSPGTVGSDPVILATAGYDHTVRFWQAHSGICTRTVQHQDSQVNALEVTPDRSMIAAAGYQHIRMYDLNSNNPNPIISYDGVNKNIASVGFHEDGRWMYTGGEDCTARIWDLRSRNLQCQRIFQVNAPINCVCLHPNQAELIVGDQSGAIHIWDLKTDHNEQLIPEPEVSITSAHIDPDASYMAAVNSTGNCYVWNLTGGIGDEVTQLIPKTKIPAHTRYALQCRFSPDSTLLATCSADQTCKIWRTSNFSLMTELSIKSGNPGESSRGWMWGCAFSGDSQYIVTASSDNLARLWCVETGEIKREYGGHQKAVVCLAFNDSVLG

mTORC1 (Homo sapiens) [2] = target: T1, mTORC1 (Homo sapiens); assay: Inhibition of mTORC1 in human LY10 cells assessed as reduction in 4E-BP1 phosphorylation at 3 uM measured after 24 hrs in presence of bortezomib by Western blot analysis; format: cell-based
PF-382 = assay: Induction of apoptosis in human PF-382 cells assessed as increase in cleaved-PARP expression at 5 uM measured after 24 hrs in presence of bortezomib by Western blot analysis; format: functional, cell-based
SLL = assay: Induction of apoptosis in human SLL cells assessed as increase in cleaved-PARP expression at 5 uM measured after 24 hrs in presence of bortezomib by Western blot analysis; format: functional, cell-based
OCI-Ly10 = assay: Induction of apoptosis in human LY10 cells assessed as increase in caspase-3/7 activation at 1 to 3 uM measured after 24 hrs in presence of bortezomib; format: functional, cell-based; conditions: dose 1-3 µM
mTORC1 (Homo sapiens) [3] = target: T1, mTORC1 (Homo sapiens); assay: Inhibition of mTORC1 in human LY7 cells assessed as reduction in c-Myc mRNA expression at 3 uM measured after 24 hrs in presence of bortezomib; format: cell-based
mTORC1 (Homo sapiens) [4] = target: T1, mTORC1 (Homo sapiens); assay: Inhibition of mTORC1 in human NCI-H929 cells assessed as reduction in c-Myc expression at 5 uM measured after 24 hrs by Western blot analysis; format: cell-based
mTORC1 (Homo sapiens) [5] = target: T1, mTORC1 (Homo sapiens); assay: Inhibition of mTORC1 in human CLL cells assessed as reduction in 4E-BP1 phosphorylation at 5 uM measured after 24 hrs in presence of carfilzomib by Western blot analysis; format: cell-based; conditions: CLL cell
mTORC1 (Homo sapiens) [6] = target: T1, mTORC1 (Homo sapiens); assay: Inhibition of mTORC1 in human NCI-H929 cells assessed as reduction in 4E-BP1 phosphorylation at 5 uM measured after 24 hrs in presence of carfilzomib by Western blot analysis; format: cell-based
mTORC1 (Homo sapiens) [7] = target: T1, mTORC1 (Homo sapiens); assay: Inhibition of mTORC1 in human PF-382 cells assessed as reduction in 4E-BP1 phosphorylation at 5 uM measured after 24 hrs in presence of carfilzomib by Western blot analysis; format: cell-based
mTORC1 (Homo sapiens) [8] = target: T1, mTORC1 (Homo sapiens); assay: Inhibition of mTORC1 in human LY10 cells assessed as reduction in 4E-BP1 phosphorylation at 3 uM measured after 24 hrs in presence of carfilzomib by Western blot analysis; format: cell-based
mTORC1 (Homo sapiens) [9] = target: T1, mTORC1 (Homo sapiens); assay: Inhibition of mTORC1 in human SLL cells assessed as reduction in c-Myc expression at 5 uM measured after 24 hrs in presence of carfilzomib by Western blot analysis; format: cell-based
[10] = target: T2, Phosphatidylinositol 4,5-bisphosphate 3-kinase catalytic subunit delta isoform (Homo sapiens) (UniProt O00329); assay: Inhibition of PI3Kdelta in human HL-60 cells assessed as reduction in AKT phosphorylation at S473 residue measured after 4 hrs; format: cell-based; conditions: dose 10-10000 nM
T2 sequence (whole entry): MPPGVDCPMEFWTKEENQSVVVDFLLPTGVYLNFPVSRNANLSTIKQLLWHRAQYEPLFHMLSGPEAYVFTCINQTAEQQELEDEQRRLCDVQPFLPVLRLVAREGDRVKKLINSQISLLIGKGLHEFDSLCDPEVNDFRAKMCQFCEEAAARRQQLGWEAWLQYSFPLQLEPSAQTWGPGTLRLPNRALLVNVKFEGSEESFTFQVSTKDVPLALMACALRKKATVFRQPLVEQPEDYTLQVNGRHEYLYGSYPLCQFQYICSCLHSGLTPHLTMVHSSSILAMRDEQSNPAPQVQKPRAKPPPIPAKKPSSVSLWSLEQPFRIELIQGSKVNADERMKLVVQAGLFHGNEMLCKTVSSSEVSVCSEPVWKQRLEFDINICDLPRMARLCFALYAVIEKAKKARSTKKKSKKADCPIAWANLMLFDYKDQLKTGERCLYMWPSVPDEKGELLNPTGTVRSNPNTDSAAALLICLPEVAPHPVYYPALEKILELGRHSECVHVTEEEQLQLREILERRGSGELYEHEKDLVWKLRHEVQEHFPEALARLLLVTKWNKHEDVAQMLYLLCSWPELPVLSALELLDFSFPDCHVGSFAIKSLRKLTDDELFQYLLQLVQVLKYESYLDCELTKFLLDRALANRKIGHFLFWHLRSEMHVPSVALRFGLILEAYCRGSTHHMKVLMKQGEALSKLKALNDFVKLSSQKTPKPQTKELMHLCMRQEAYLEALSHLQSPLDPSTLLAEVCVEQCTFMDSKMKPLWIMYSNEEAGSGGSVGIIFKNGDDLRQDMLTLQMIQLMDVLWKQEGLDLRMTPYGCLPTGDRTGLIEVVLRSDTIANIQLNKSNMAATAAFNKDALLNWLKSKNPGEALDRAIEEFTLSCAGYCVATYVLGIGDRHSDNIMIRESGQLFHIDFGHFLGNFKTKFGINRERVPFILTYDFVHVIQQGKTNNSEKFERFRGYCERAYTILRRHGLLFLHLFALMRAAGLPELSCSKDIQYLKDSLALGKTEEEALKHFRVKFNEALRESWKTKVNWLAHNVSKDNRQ

[11] = target: T2, Phosphatidylinositol 4,5-bisphosphate 3-kinase catalytic subunit delta isoform (Homo sapiens); assay: Inhibition of PI3Kdelta in human THP-1 cells assessed as reduction in AKT phosphorylation at S473 residue measured after 4 hrs; format: cell-based; conditions: dose 10-10000 nM
[12] = target: T2, Phosphatidylinositol 4,5-bisphosphate 3-kinase catalytic subunit delta isoform (Homo sapiens); assay: Inhibition of PI3Kdelta in human Jurkat cells assessed as reduction in AKT phosphorylation at S473 residue measured after 4 hrs; format: cell-based; conditions: dose 10-10000 nM
[13] = target: T2, Phosphatidylinositol 4,5-bisphosphate 3-kinase catalytic subunit delta isoform (Homo sapiens); assay: Inhibition of PI3Kdelta in human THP-1 cells assessed as reduction in AKT phosphorylation at S473 residue at 1 uM measured after 4 hrs relative to control; format: cell-based
[14] = target: T2, Phosphatidylinositol 4,5-bisphosphate 3-kinase catalytic subunit delta isoform (Homo sapiens); assay: Inhibition of PI3Kdelta in human MOLT-4 cells assessed as reduction in AKT phosphorylation at S473 residue at 1 uM measured after 4 hrs relative to control; format: cell-based
MOLT-4 = assay: Antitumor activity against human MOLT-4 cells xenografted in NOD/SCID mouse assessed as reduction in tumor volume at 150 mg/kg, po administered daily for 25 days measured at 2 to 3 times per week during compound dosing by caliper method; format: functional, organism-based; conditions: time 25.0 day
mTORC1 (Homo sapiens) [15] = target: T1, mTORC1 (Homo sapiens); assay: Inhibition of mTORC1 in human OCILY7 cells transfected with c-Myc-expressing plasmid (M+) assessed as reduction in endogenous c-Myc expression at 3 to 5 uM incubated for 24 hrs in presence of carfilzomib by Western blot analysis; format: cell-based; conditions: dose 3-5 µM
[16] = target: Myc proto-oncogene protein (Homo sapiens) (UniProt P01106); assay: Inhibition of c-Myc in human LY7 cells assessed as reduction in E2F1 expression at 3 uM incubated for 24 hrs in presence of carfilzomib by Western blot analysis; format: cell-based
Sequence of Myc proto-oncogene protein (Homo sapiens) (P01106 whole entry): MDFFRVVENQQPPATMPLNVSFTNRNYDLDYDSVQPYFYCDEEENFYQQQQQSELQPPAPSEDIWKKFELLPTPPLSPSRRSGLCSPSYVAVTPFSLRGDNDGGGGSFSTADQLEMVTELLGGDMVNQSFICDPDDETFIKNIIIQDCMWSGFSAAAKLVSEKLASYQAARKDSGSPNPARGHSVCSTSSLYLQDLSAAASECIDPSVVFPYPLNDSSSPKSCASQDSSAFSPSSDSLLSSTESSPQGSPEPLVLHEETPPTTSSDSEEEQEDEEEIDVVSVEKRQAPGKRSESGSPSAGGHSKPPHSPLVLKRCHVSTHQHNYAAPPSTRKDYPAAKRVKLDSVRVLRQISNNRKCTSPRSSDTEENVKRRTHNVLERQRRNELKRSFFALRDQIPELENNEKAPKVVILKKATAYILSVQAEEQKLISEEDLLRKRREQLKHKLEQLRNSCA

OCI-Ly7 [17] = assay: Cytotoxicity against human OCILY7 cells transfected with c-Myc-expressing plasmid (M+) assessed as reduction in cell viability at 7.5 to 25 uM incubated for 24 hrs by cell-titer glo assay; format: functional, cell-based; conditions: dose 7.5-25 µM
OCI-Ly7 [18] = assay: Cytotoxicity against human OCILY7 cells transfected with empty vector assessed as reduction in cell viability at 7.5 to 25 uM incubated for 24 hrs by cell-titer glo assay; format: functional, cell-based; conditions: dose 7.5-25 µM

CC[C@H](Nc1ncnc2[nH]cnc12)c1nc2cccc(F)c2c(=O)n1-c1ccccc1
inhibition (mTORC1 (Homo sapiens) [1]): inactive | inhibition (mTORC1 (Homo sapiens) [2]): inactive | Activity (PF-382): Active | Activity (SLL): Active | Activity (OCI-Ly10): Active | inhibition (mTORC1 (Homo sapiens) [3]): inactive

CC(C)Oc1ccc(-c2nn([C@@H](C)c3oc4ccc(F)cc4c(=O)c3-c3cccc(F)c3)c3ncnc(N)c23)cc1F [UMBRALISIB]
inhibition (mTORC1 (Homo sapiens) [4]): inactive | inhibition (mTORC1 (Homo sapiens) [5]): Active | inhibition (mTORC1 (Homo sapiens) [6]): Active | inhibition (mTORC1 (Homo sapiens) [7]): Active | inhibition (mTORC1 (Homo sapiens) [8]): Active | inhibition (mTORC1 (Homo sapiens) [9]): Active | inhibition [10]: Dose-Dependent Effect | inhibition [11]: Dose-Dependent Effect | inhibition [12]: Dose-Dependent Effect | inhibition [13]: 43% | inhibition [14]: 43% | Activity (MOLT-4): Active | inhibition (mTORC1 (Homo sapiens) [15]): inactive | inhibition [16]: Active | Activity (OCI-Ly7 [17]): inactive | Activity (OCI-Ly7 [18]): Active
